From ChEMBL document CHEMBL4507259 (2021)
Active and inactive are the calls of the source.

What was measured:
[1] = GPCRScan assay: inhibition of GABA/PBR; design: species or system Rattus norvegicus; radioligand conc. used [nm] 0.3 – 2.0, parental cells brain tissue
LNCaP-Clone-FGC = test: LnCaP-FGC Proliferation; type: functional, cell-based; conditions: Homo sapiens
[2] = target: Glucocorticoid receptor (Homo sapiens) (UniProt P04150); test: GR (h) CEREP ligand profiling; conditions: filed as agonist, Compound concentration 10.0 uM
[3] = target: Type-2 angiotensin II receptor (Homo sapiens) (UniProt P50052); test: AT2 (h) CEREP ligand profiling; conditions: filed as agonist, Compound concentration 10.0 uM
[4] = target: Vasopressin V1a receptor (Homo sapiens) (UniProt P37288); test: V1a (h) CEREP ligand profiling; conditions: filed as agonist, Compound concentration 10.0 uM
[5] = target: Calcium-activated potassium channel (Homo sapiens) (UniProt Q92952+Q9UGI6+Q12791+O15554+Q9H2S1+A8MYU2); test: SKCa channel CEREP ligand profiling; type: protein assay; conditions: filed as antagonist; Compound concentration 10.0 uM
[6] = target: Tyrosine-protein kinase ABL1 (Homo sapiens) (UniProt P00519); conditions: Compound concentration 1000.0 nM
[7] = target: Atypical kinase COQ8B, mitochondrial (Homo sapiens) (UniProt Q96D53); conditions: Compound concentration 1000.0 nM
[8] = target: 5'-AMP-activated protein kinase catalytic subunit alpha-1 (Homo sapiens) (UniProt Q13131); conditions: Compound concentration 1000.0 nM
[9] = target: Serine/threonine-protein kinase B-raf (Homo sapiens) (UniProt P15056); conditions: Compound concentration 1000.0 nM
[10] = target: Calcium/calmodulin-dependent protein kinase type II subunit gamma (Homo sapiens) (UniProt Q13555); conditions: Compound concentration 1000.0 nM
[11] = target: Casein kinase I isoform gamma-3 (Homo sapiens) (UniProt Q9Y6M4); conditions: Compound concentration 1000.0 nM
[12] = target: Serine/threonine-protein kinase DCLK1 (Homo sapiens) (UniProt O15075); conditions: Compound concentration 1000.0 nM
[13] = target: Myotonin-protein kinase (Homo sapiens) (UniProt Q09013); conditions: Compound concentration 1000.0 nM
[14] = target: Ephrin type-B receptor 2 (Homo sapiens) (UniProt P29323); conditions: Compound concentration 1000.0 nM
[15] = target: Cyclin-G-associated kinase (Homo sapiens) (UniProt O14976); conditions: Compound concentration 1000.0 nM
[16] = target: Rhodopsin kinase GRK1 (Homo sapiens) (UniProt Q15835); conditions: Compound concentration 1000.0 nM
[17] = target: Tyrosine-protein kinase JAK1 (Homo sapiens) (UniProt P23458); conditions: Compound concentration 1000.0 nM
[18] = tested on: Mast/stem cell growth factor receptor Kit (Homo sapiens), P10721 [A829P]; conditions: Compound concentration 1000.0 nM
[19] = tested on: Mast/stem cell growth factor receptor Kit (Homo sapiens), P10721 [V559D,T670I]; conditions: Compound concentration 1000.0 nM
[20] = target: Serine/threonine-protein kinase LATS2 (Homo sapiens) (UniProt Q9NRM7); conditions: Compound concentration 1000.0 nM
[21] = target: Serine/threonine-protein kinase MAK (Homo sapiens) (UniProt P20794); conditions: Compound concentration 1000.0 nM
[22] = target: MAP/microtubule affinity-regulating kinase 3 (Homo sapiens) (UniProt P27448); conditions: Compound concentration 1000.0 nM
[23] = target: MAP kinase-interacting serine/threonine-protein kinase 1 (Homo sapiens) (UniProt Q9BUB5); conditions: Compound concentration 1000.0 nM
[24] = target: Serine/threonine-protein kinase MRCK beta (Homo sapiens) (UniProt Q9Y5S2); conditions: Compound concentration 1000.0 nM
[25] = target: Serine/threonine-protein kinase 26 (Homo sapiens) (UniProt Q9P289); conditions: Compound concentration 1000.0 nM
[26] = target: Muscle, skeletal receptor tyrosine-protein kinase (Homo sapiens) (UniProt O15146); conditions: Compound concentration 1000.0 nM
[27] = target: Serine/threonine-protein kinase 38-like (Homo sapiens) (UniProt Q9Y2H1); conditions: Compound concentration 1000.0 nM
[28] = target: Phosphatidylinositol 4,5-bisphosphate 3-kinase catalytic subunit alpha isoform (Homo sapiens) (UniProt P42336); conditions: Compound concentration 1000.0 nM
[29] = target: Phosphatidylinositol 4,5-bisphosphate 3-kinase catalytic subunit delta isoform (Homo sapiens) (UniProt O00329); conditions: Compound concentration 1000.0 nM
[30] = target: Phosphatidylinositol 4-phosphate 5-kinase type-1 gamma (Homo sapiens) (UniProt O60331); conditions: Compound concentration 1000.0 nM
[31] = target: cAMP-dependent protein kinase catalytic subunit beta (Homo sapiens) (UniProt P22694); conditions: Compound concentration 1000.0 nM
[32] = target: Protein kinase C delta type (Homo sapiens) (UniProt Q05655); conditions: Compound concentration 1000.0 nM
[33] = target: Ribosomal protein S6 kinase alpha-2 (Homo sapiens) (UniProt Q15349); conditions: Compound concentration 1000.0 nM
[34] = target: Serine/threonine-protein kinase SBK1 (Homo sapiens) (UniProt Q52WX2); conditions: Compound concentration 1000.0 nM
[35] = target: Uncharacterized serine/threonine-protein kinase SBK3 (Homo sapiens) (UniProt P0C264); conditions: Compound concentration 1000.0 nM
[36] = target: Proto-oncogene tyrosine-protein kinase Src (Homo sapiens) (UniProt P12931); conditions: Compound concentration 1000.0 nM
[37] = target: SRSF protein kinase 1 (Homo sapiens) (UniProt Q96SB4); conditions: Compound concentration 1000.0 nM
[38] = target: Serine/threonine-protein kinase 33 (Homo sapiens) (UniProt Q9BYT3); conditions: Compound concentration 1000.0 nM
[39] = target: Tyrosine-protein kinase receptor Tie-1 (Homo sapiens) (UniProt P35590); conditions: Compound concentration 1000.0 nM
[40] = target: Phosphatidylinositol 3-kinase catalytic subunit type 3 (Homo sapiens) (UniProt Q8NEB9); conditions: Compound concentration 1000.0 nM
[41] = target: 5-hydroxytryptamine receptor 1B (Homo sapiens) (UniProt P28222); conditions: Compound concentration 10.0 uM
[42] = target: 5-hydroxytryptamine receptor 1E (Homo sapiens) (UniProt P28566); conditions: Compound concentration 10.0 uM
[43] = target: Histamine H3 receptor (Homo sapiens) (UniProt Q9Y5N1); conditions: Compound concentration 10.0 uM
[44] = target: Histamine H4 receptor (Homo sapiens) (UniProt Q9H3N8); conditions: Compound concentration 10.0 uM
Sequence of Histamine H4 receptor (Homo sapiens) (Q9H3N8 whole entry): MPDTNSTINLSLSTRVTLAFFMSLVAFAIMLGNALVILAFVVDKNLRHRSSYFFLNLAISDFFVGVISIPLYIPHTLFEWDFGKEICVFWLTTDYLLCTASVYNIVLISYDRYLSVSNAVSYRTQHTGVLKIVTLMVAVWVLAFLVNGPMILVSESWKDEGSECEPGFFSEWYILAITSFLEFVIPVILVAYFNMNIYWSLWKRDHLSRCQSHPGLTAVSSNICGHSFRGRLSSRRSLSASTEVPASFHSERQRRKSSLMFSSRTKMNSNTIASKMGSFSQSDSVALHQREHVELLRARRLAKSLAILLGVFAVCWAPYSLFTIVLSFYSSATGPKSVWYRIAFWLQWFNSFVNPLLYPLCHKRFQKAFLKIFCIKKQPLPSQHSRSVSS

Sequence of Type-2 angiotensin II receptor (Homo sapiens) (P50052 whole entry): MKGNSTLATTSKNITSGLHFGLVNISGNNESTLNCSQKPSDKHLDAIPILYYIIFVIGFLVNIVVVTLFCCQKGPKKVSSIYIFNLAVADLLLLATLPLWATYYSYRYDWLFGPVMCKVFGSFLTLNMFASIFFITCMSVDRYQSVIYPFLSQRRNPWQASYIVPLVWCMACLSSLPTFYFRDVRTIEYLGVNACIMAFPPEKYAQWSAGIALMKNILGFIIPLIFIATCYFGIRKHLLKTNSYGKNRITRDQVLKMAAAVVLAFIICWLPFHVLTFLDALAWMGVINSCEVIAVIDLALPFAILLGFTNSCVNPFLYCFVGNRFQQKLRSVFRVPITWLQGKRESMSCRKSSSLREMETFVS
Sequence of Protein kinase C delta type (Homo sapiens) (Q05655 whole entry, looked up): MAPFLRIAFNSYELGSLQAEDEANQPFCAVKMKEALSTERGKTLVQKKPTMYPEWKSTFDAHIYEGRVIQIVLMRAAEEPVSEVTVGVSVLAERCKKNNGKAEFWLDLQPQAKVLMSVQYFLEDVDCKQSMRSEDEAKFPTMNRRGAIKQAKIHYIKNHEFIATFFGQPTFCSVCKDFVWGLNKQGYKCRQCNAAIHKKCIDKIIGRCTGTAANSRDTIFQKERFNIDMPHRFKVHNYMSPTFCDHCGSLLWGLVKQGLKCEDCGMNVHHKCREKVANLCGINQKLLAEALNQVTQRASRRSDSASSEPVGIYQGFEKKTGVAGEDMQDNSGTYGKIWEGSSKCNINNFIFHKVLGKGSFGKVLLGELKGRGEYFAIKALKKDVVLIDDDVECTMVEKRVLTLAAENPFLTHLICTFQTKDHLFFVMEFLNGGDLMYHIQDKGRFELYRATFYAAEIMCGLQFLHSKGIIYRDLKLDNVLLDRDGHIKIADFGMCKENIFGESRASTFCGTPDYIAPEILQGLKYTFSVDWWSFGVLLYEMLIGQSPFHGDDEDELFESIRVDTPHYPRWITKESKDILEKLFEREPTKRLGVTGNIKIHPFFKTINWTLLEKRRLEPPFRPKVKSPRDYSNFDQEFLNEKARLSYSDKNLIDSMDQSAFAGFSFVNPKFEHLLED
Sequence of Tyrosine-protein kinase JAK1 (Homo sapiens) (P23458 whole entry): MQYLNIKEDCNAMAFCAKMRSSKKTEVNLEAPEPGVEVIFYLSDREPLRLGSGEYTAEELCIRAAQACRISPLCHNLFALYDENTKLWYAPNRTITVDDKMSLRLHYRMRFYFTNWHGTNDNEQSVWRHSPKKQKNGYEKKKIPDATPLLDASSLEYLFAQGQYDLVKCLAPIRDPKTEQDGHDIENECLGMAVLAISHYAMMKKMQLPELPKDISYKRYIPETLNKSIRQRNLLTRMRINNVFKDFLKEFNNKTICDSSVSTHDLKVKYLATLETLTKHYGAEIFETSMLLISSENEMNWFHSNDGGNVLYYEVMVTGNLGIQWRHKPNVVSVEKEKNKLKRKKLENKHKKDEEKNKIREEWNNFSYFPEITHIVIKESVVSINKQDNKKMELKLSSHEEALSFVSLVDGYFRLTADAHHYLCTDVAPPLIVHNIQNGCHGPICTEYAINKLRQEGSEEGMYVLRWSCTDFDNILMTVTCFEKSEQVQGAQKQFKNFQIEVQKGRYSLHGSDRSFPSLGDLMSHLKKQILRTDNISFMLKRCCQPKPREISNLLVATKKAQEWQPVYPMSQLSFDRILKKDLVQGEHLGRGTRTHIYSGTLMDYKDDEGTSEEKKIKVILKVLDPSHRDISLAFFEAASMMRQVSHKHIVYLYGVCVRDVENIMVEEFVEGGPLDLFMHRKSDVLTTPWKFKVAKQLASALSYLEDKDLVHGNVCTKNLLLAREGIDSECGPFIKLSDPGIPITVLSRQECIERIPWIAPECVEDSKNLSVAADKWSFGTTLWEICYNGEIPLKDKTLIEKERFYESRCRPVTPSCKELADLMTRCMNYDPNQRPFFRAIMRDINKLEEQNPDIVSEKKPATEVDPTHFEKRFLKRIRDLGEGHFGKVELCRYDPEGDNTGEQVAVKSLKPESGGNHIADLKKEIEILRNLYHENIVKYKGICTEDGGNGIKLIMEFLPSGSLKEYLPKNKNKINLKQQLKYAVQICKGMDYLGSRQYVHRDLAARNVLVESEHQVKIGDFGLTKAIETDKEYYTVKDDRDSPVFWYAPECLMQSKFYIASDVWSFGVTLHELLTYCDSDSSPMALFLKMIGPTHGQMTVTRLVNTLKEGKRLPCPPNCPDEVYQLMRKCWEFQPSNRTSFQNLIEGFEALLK
Sequence of Serine/threonine-protein kinase 38-like (Homo sapiens) (Q9Y2H1 2-464 limits assumed): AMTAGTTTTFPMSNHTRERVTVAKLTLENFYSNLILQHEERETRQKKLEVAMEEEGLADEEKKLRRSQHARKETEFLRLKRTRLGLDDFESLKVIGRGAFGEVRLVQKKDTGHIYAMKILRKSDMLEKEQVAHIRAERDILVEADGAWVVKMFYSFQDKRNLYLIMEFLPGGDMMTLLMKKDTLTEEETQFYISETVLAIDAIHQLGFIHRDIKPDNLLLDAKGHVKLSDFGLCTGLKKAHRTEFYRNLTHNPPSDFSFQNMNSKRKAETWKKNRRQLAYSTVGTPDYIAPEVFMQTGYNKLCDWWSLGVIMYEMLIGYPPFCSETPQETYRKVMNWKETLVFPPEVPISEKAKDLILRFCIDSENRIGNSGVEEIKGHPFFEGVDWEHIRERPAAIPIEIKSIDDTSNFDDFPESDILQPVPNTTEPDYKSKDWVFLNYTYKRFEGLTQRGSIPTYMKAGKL
Sequence of Serine/threonine-protein kinase SBK1 (Homo sapiens) (Q52WX2 whole entry): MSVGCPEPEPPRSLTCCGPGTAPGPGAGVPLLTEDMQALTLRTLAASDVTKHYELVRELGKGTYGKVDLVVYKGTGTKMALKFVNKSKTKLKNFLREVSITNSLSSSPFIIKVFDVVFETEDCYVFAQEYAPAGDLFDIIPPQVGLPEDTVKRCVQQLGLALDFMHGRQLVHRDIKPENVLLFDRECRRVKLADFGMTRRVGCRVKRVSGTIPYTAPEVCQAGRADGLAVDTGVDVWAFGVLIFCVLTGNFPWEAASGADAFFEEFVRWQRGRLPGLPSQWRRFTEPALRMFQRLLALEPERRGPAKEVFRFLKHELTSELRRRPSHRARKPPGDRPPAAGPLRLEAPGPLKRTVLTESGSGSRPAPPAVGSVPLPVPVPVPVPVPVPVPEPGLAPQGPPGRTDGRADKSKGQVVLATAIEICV
Sequence of Vasopressin V1a receptor (Homo sapiens) (P37288 whole entry, looked up): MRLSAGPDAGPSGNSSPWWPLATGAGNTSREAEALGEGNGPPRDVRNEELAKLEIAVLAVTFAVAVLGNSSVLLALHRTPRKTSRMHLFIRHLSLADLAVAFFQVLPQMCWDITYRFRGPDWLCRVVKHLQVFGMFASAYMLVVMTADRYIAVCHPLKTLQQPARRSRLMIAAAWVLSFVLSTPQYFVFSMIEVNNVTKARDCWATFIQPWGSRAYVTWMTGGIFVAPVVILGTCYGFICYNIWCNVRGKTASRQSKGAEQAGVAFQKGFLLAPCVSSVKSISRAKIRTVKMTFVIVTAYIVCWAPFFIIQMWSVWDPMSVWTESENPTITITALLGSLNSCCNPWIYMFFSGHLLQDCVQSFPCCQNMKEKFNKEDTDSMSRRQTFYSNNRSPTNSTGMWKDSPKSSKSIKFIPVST
Sequence of Mast/stem cell growth factor receptor Kit (Homo sapiens), P10721 [A829P] (P10721 whole entry A829P): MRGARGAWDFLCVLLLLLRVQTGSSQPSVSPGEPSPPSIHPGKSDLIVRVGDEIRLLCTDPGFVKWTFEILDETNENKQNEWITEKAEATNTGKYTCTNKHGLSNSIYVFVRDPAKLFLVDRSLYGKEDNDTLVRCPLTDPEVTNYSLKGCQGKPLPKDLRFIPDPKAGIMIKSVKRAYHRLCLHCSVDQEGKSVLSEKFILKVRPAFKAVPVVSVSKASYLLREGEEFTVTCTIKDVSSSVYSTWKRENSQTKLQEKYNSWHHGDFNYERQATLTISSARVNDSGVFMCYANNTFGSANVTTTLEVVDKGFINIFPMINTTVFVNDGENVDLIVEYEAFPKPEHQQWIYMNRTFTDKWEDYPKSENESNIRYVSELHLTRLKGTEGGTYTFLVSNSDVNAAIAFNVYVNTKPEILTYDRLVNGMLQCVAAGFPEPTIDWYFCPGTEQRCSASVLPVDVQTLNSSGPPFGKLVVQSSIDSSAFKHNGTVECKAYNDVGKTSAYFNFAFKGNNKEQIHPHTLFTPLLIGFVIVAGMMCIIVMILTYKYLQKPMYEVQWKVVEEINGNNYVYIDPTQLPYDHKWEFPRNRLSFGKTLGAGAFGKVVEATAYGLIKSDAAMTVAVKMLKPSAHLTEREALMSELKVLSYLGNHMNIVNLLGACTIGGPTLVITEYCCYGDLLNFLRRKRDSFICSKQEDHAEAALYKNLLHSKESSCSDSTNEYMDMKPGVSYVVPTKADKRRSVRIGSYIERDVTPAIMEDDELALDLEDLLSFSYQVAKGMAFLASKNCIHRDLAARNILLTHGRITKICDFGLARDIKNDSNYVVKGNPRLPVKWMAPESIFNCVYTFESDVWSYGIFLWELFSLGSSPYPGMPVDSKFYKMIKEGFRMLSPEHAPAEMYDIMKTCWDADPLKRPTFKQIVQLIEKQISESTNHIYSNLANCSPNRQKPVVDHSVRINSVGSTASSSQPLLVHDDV
Sequence of Mast/stem cell growth factor receptor Kit (Homo sapiens), P10721 [V559D,T670I] (P10721 whole entry V559D/T670I): as the sequence (P10721 whole entry A829P) above, with V559D, T670I, P829A counted along it

CNC(=O)Nc1ccc2c(c1)CC[C@@]21OC(=O)N(CC(=O)N(Cc2ccc(F)cc2)[C@@H](C)C(F)(F)F)C1=O [A-485]
active: IC50 (LNCaP-Clone-FGC) 0.381 µM | residual activity [20] 47%
1.11 µM: Ki [1]
5.96: pKi [1]
inactive: inhibition [2] 13% | inhibition [3] 12% | inhibition [4] 10% | inhibition [5] 2% | residual activity [6] 84% | residual activity [7] 100% | residual activity [8] 100% | residual activity [9] 93% | residual activity [10] 76% | residual activity [11] 84% | residual activity [12] 96% | residual activity [13] 100% | residual activity [14] 72% | residual activity [15] 100% | residual activity [16] 82% | residual activity [17] 100% | residual activity [18] 79% | residual activity [19] 93% | residual activity [21] 84% | residual activity [22] 100% | residual activity [23] 67% | residual activity [24] 73% | residual activity [25] 90% | residual activity [26] 91% | residual activity [27] 66% | residual activity [28] 83% | residual activity [29] 92% | residual activity [30] 100% | residual activity [31] 100% | residual activity [32] 76% | residual activity [33] 76% | residual activity [34] 79% | residual activity [35] 93% | residual activity [36] 91% | residual activity [37] 95% | residual activity [38] 100% | residual activity [39] 89% | residual activity [40] 88% | inhibition [41] 9.82% | inhibition [42] 4.23% | inhibition [43] 0.39% | inhibition [44] 10.1%

CNC(=O)Nc1ccc2c(c1)[C@@]1(CC2)OC(=O)N(CC(=O)N(Cc2ccc(F)cc2)[C@@H](C)C(F)(F)F)C1=O [A-486]
active: residual activity [28] 28%
5.6: pKi [1]
inactive: inhibition [2] 16% | inhibition [3] 2% | inhibition [4] 23% | inhibition [5] -7% | residual activity [6] 93% | residual activity [7] 95% | residual activity [8] 91% | residual activity [9] 100% | residual activity [10] 98% | residual activity [11] 89% | residual activity [12] 76% | residual activity [13] 92% | residual activity [14] 87% | residual activity [15] 100% | residual activity [16] 73% | residual activity [17] 85% | residual activity [18] 100% | residual activity [19] 100% | residual activity [20] 68% | residual activity [21] 100% | residual activity [22] 100% | residual activity [23] 94% | residual activity [24] 80% | residual activity [25] 100% | residual activity [26] 100% | residual activity [27] 67% | residual activity [29] 100% | residual activity [30] 100% | residual activity [31] 100% | residual activity [32] 75% | residual activity [33] 87% | residual activity [34] 75% | residual activity [35] 100% | residual activity [36] 90% | residual activity [37] 100% | residual activity [38] 100% | residual activity [39] 100% | residual activity [40] 96% | inhibition [41] 11.2% | inhibition [42] 0.33% | inhibition [43] 13.2% | inhibition [44] 5.16%
> 10 µM (not active): IC50 (LNCaP-Clone-FGC)
2.58 µM: Ki [1]
